Source: paper PMC11085308, “Design, Synthesis and Biological Activity of Novel Methoxy- and Hydroxy-Substituted N-Benzimidazole-Derived Carboxamides” (Molecules, 2024)
Converted amounts (≈) assume the structure as drawn. “Also recorded” adds a separate entry of the source.

Columns and labels:
[1] = DPPH free radical scavenging assay; details: compared to the standard BHT
Text: (§1) The synthesized benzazole acrylonitrile derivatives were screened for their antioxidative potency by using in vitro assays, namely DPPH and ABTS as free radical scavenging assays and FRAP as a ferric reducing/antioxidant power assay.
The well-known antioxidant butylated hydroxytoluene (BHT) was used as a standard for comparing activity during testing. The DPPH assay is a standard commonly used test for the in vitro assessment of the antioxidant capacity of novel compounds by using their ability to scavenge the stable radical 1,1-diphenyl-picrylhydrazyl. […] Another test used to evaluate the antioxidative capacity of novel compounds was the ABTS test, by which their activity was evaluated by scavenging the stable radical 3-ethylbenzthiazoline-6-sulphonic acid.
Determination of the reducing activity of the stable radical 1,1-diphenyl-picrylhydrazyl (DPPH):
The reducing activity of the investigated systems was measured by the DPPH method according to previously described procedures with modifications to ensure their use on a 96-well microplate. Briefly, equal volumes of various concentrations of the tested molecules (dissolved in DMSO) were added to a solution of DPPH (final concentration of 50 µM in absolute ethanol). Ethanol and DMSO were used as control solutions in line with earlier reports. The radical scavenging activity was calculated using the following formula:[(A517 control − A517 compound)/A517 control] × 100.
The IC50 values were calculated from dose–response curves using nonlinear regression analysis with the GraphPad Prism 8 Ink. program. All measurements were carried out in triplicate.

E. coli efflux del. = test: microbe, parasite or virus in culture; type: cell-based, Escherichia coli; details: broth microdilution, 16–24 h at 37 °C; unit inferred
Procedure: (§2) The in vitro antibacterial activity of the synthesized benzamides 7–12 and 31–37 was evaluated against a panel of eight different bacterial strains. The Gram-positive bacterial strains comprised S. aureus, S. pneumoniae and E. faecalis, and the panel of Gram-negative bacteria consisted of E. coli, K. pneumoniae, A. baumannii and P. aeruginosa.
(§3) The selected bacterial strains were Gram-negative Escherichia coli (ATCC 25922) and Gram-positive Staphylococcus aureus (ATCC 29213) and S. Pneumoniae (ATCC 49619). The Saccharomyces cerevisiae ATCC 7752 strain was tested as a eukaryotic model organism. Synthesized compounds were prepared as 10 mM DMSO solutions and tested in a final concentration range of 100–0.2 µM [39].
(§4) Broth microdilution testing was performed according to CLSI (Clinical Laboratory Standards Institute) guidelines. The MIC (minimal inhibitory concentration) value was defined as the last tested concentration of a compound at which there is no visible growth of bacteria. Inoculums for each microorganism were prepared using the direct colony suspension method, where broth solutions that achieved turbidity equivalent to 0.5 McFarland standards were additionally diluted 100× with cation-adjusted MH media (Becton Dickinson). All test plates were incubated for 16–24 h at 37 °C.

S. aureus ATCC 29213 = test: Antibacterial activity in vitro, broth microdilution MIC; type: cell-based, Staphylococcus aureus; details: broth microdilution, 16–24 h at 37 °C; unit inferred
Procedure: as §2, §3, §4

[2] = system: HEK 293 (human embryonic kidney); test: Antiproliferative activity in vitro, MTT assay, 72 h, non-cancerous cell line; type: cell-based; details: HEK293, 72 h incubation, '-' with footnote a = did not show biological activity due to precipitation
Procedure: (§5) The experiments were carried out on four human cell lines which are derived from three cancer types: H460 (lung carcinoma), HCT 116 (colorectal carcinoma), MCF-7 (human breast cancer) and the non-cancerous cell line HEK 293 (human embryonic kidney).
(§6) The results are compared with the known antiproliferative agents doxorubicin and etoposide. […] Therefore, it is not clear whether the observed antiproliferative activity is due to the biological activity of the compounds or to precipitation.
(§7) The experiments were performed on four human cell lines, including HCT 116 (colon carcinoma), H 460 (lung carcinoma), MCF-7 (breast carcinoma) and HEK 293 (human embryonic kidney cells), in line with previously published experimental procedures. Briefly, the cells were grown in DMEM medium with the addition of 10% fetal bovine serum (FBS), 2 mM of L-glutamine, 100 U/mL of penicillin and 100 µg/mL of streptomycin and cultured as monolayers at 37 °C in a humidified atmosphere with 5% CO2. Cells were seeded at 2 × 10^3 cells/well in standard 96-well microtiter plates and left to attach for 24 h. The next day, a test compound was added in five serial 10-fold dilutions. The rate of cell growth was evaluated after 72 h of incubation with MTT assays. […] Each test was performed in quadruplicate in at least two individual experiments.

[3] = Ferric reducing/antioxidant power (FRAP assay); design: FRAP: unit not given here
Procedure: as §1
The antioxidant activity of a substance is directly related to its reducing power.
The FRAP method was carried out according to previously described procedures with some modifications to make it compatible with an assay on a 96-well microplate. All results were expressed as Fe^2+ equivalents (Fe^2+ µmol). Ferrous sulphate (FeSO4 × 7H2O) was used to develop a standard curve of 20–2000 µmol/l for the FRAP test.

E. faecalis ATCC 29212 = test: Antibacterial activity in vitro, broth microdilution MIC; type: cell-based; details: for MIC E. faecalis ATCC 29212: broth microdilution, 16–24 h at 37 °C, unit inferred
Procedure: as §2, §3, §4

A. baumannii ATCC 17978 = test: as above; type: cell-based; details: 16–24 h at 37 °C, unit inferred
Procedure: as §2, §3, §4

P. aeruginosa ATCC 27853 = test: as above; type: cell-based; details: 16–24 h at 37 °C, unit inferred
Procedure: as §2, §3, §4

[4] = system: MCF-7 (human breast cancer); test: Antiproliferative activity in vitro, MTT assay, 72 h; type: cell-based; details: MCF7, 72 h incubation
Procedure: as §5, §6, §7

[5] = system: HCT 116 (colorectal carcinoma); test: as above; type: cell-based; details: Homo sapiens, 72 h incubation, '-' with footnote a = did not show biological activity due to precipitation
Procedure: as §5, §6, §7

H460 (lung carcinoma) = test: as above; type: cell-based; details: Homo sapiens, NCI-H460, 72 h incubation
Procedure: as §5, §6, §7

E. coli ATCC 25922 = test: Antibacterial activity in vitro, broth microdilution MIC; type: cell-based, Escherichia coli; details: 16–24 h at 37 °C, unit inferred
Procedure: as §2, §3, §4

IC50 [4] [nM] | IC50 [5] [nM] | IC50 (H460 (lung carcinoma)) [nM] | SMILES | DPPH free radical scavenging activity, in words [1] | MIC E. coli efflux del. (E. coli efflux del.) [µM] | MIC S. aureus ATCC 29213 (S. aureus ATCC 29213) [µM] | IC50 [2] [nM] | FRAP ([3]; Fe2+ equivalents, triplicate) | FRAP ferric reducing/antioxidant power, in words ([3]; compared to the standard BHT) | melting point [°C] | Selectivity of antibacterial activity, in words (E. faecalis ATCC 29212; against the Gram-positive strain E. faecalis) | MIC E. faecalis ATCC 29212 (E. faecalis ATCC 29212) [µM] | MIC A. baumannii ATCC 17978 (A. baumannii ATCC 17978) [µM] | MIC P. aeruginosa ATCC 27853 (P. aeruginosa ATCC 27853) [µM] | MIC E. coli ATCC 25922 (E. coli ATCC 25922) [µM]
9 ± 4 | 40 ± 10 | 40 ± 10 | COc1cccc2c1C(=O)c1c(O)c3c(c(O)c1C2=O)C[C@@](O)(C(=O)CO)C[C@@H]3O[C@H]1C[C@H](N)[C@H](O)[C@H](C)O1 [Doxorubicin, doxorubicin, reference compound] |  |  |  | 20 ± 10 |  |  |  |  |  |  |  | 
600 ± 100 | 2200 ± 400 | 2200 ± 400 | COc1cc([C@@H]2c3cc4c(cc3[C@@H](O[C@@H]3O[C@@H]5CO[C@@H](C)O[C@H]5[C@H](O)[C@H]3O)[C@H]3COC(=O)[C@H]23)OCO4)cc(OC)c1O [Etoposide, etoposide, reference compound] |  |  |  | 650 ± 20 |  |  |  |  |  |  |  | 
 |  |  | CNC(C)C1CCC(N)C(OC2C(N)CC(N)C(OC3OCC(C)(O)C(NC)C3O)C2O)O1 (stereo not drawn) [Gentamicin, gentamicin, reference compound] |  | 1 (≈ 0.478 µg/mL) | 0.25 (≈ 0.119 µg/mL) |  |  |  |  |  | 16 (≈ 7.64 µg/mL) | 4 (≈ 1.91 µg/mL) | 2 (≈ 0.955 µg/mL) | 0.5 (≈ 0.239 µg/mL)
 |  |  | C[C@@H](O)[C@H]1C(=O)N2C(C(=O)O)=C(S[C@@H]3CN[C@H](C(=O)N(C)C)C3)[C@H](C)[C@H]12 [Meropenem, meropenem, reference compound] |  | < 0.125 | < 0.125 |  |  |  |  |  | 8 (≈ 3.07 µg/mL) | 0.5 (≈ 0.192 µg/mL) | 1 (≈ 0.383 µg/mL) | < 0.125
 |  |  | CN(C)[C@@H]1C(O)=C(C(N)=O)C(=O)[C@@]2(O)C(O)=C3C(=O)c4c(O)cccc4[C@@](C)(O)[C@H]3C[C@@H]12 [Tetracycline, tetracycline, reference compound] |  | 32 (≈ 14.2 µg/mL) |  |  |  |  |  |  |  |  |  | 
 |  |  | NC[C@H]1O[C@H](O[C@H]2[C@H](O)[C@@H](O[C@H]3O[C@H](CO)[C@@H](O)[C@H](N)[C@H]3O)[C@H](N)C[C@@H]2N)[C@H](N)C[C@@H]1O [Tobramycin, reference compound] |  | 1 (≈ 0.468 µg/mL) | 0.25 (≈ 0.117 µg/mL) |  |  |  |  |  | 8 (≈ 3.74 µg/mL) | 2 (≈ 0.935 µg/mL) | 0.5 (≈ 0.234 µg/mL) | 1 (≈ 0.468 µg/mL)

SMILES | IC50 [4] [nM] | IC50 [5] [nM] | IC50 (H460 (lung carcinoma)) [nM] | DPPH free radical scavenging activity, in words [1] | MIC E. coli efflux del. (E. coli efflux del.) [µM] | MIC S. aureus ATCC 29213 (S. aureus ATCC 29213) [µM] | IC50 [2] [nM] | FRAP ([3]; Fe2+ equivalents, triplicate) | FRAP ferric reducing/antioxidant power, in words ([3]; compared to the standard BHT) | melting point [°C] | Selectivity of antibacterial activity, in words (E. faecalis ATCC 29212; against the Gram-positive strain E. faecalis) | MIC E. faecalis ATCC 29212 (E. faecalis ATCC 29212) [µM] | MIC A. baumannii ATCC 17978 (A. baumannii ATCC 17978) [µM] | MIC P. aeruginosa ATCC 27853 (P. aeruginosa ATCC 27853) [µM] | MIC E. coli ATCC 25922 (E. coli ATCC 25922) [µM]
O=C(Nc1nc2ccccc2n1-c1ccccc1)c1cc(O)c(O)c(O)c1 [Compound 34, 3,4,5-Trihydroxy-N-(1-phenyl-1H-benzo[d]imidazol-2-yl)benzamide] | 49400 ± 27300 | > 100000 | > 100000 | significantly improved; also recorded: exceptional activity | > 64 | > 64 | 85100 ± 8800 | 6.83 ± 1.26 | very low | 278 to 281 | selective antibacterial activity | 32 (≈ 11.6 µg/mL) | > 64 | > 64 | > 64
